Data as given in EP0007398A1, “N-thio-N-methyl carbamic acid derivative, process for its preparation, its application and pesticides containing it” (priority 1978, dated 1980).
Like-named read-outs stand apart in the source and are kept apart here.

Key:
[1] = Acute oral toxicity in the mouse; conditions: in vivo, Maus, read-out: akute orale Toxizität
Protocol: Die Verbindung wirkt als direktes Insektizid. Sie hat auch systemische Aktivität. Sie zeichnet sich unter Praxisbedingungen durch eine besonders günstige Wirkungsdauer aus. Die Verbindung ist ferner von Wert für die Bekämpfung von Schädlingen bei Tieren. So zeigt beispielsweise die Verbindung der Formel I in einer Konzentration von 10^-7 g/ml im Test gegen Aedes aegypti eine Wirkung von 100%. Die akute orale Toxizität an der Maus beträgt mehr als 1000 mg/kg.

[2] = tested on: Aedes aegypti, Gelbfiebermücke; assay: Initial activity in water against larvae; assay type: in vivo; conditions: 168 h
Protocol: Testinsekt: Aedes aegypti, Gelbfiebermücke Testmethode: Initialwirkung im Wasser
0,2 ml acetonische Wirkstofflösung werden mit 20 ml Leitungswasser gemischt. Pro Parzelle werden 10 Larven im letzten Larvenstadium angesetzt und bei 25°C und 60% rel. Feuchtigkeit inkubiert bis zum Schlüpfen der Adulten in den Kontrollparzellen. Unbehandeltc und mit Aceton behandelte Parzellen dienen als Kontrollen. Testdauer: 7 Tage. Die Wirkung wird ausgedrückt als prozentuale Reduktion der Zahl normaler Adulter im Vergleich zu den Kontrollparzellen.

[3] = tested on: Leptinotarsa decemlineata, Kartoffelkäfer; assay: Initial activity on potato leaf discs; assay type: in vivo; conditions: foliar, 96 h, read-out: % Wirkung
Protocol: Testinsekt: Leptinotarsa decemlineata, Kartoffelkäfer Testmethode: Initialwirkung auf Blattrondellen
Kartoffelblattrondellen werden mit acetonischer Wirk- stofflösung besprüht. Pro Rondelle werden 5 frischgeschlüpfte Larven des ersten Stadiums angesetzt und bei 25°C und 60% rel. Feuchtigkeit inkubiert. Unbehandelte und mit Aceton behandelte Blattrondellen dienen als Kontrolle. Testdauer: 4 Tage. Die Resultate werden ausgedrückt als prozentuale Reduktion der Ueberlebensrate der Larven im Vergleich zu den Kontrollparzellen.

UV stability = assay type: physicochemical; conditions: qualitative statement
Water solubility = assay type: physicochemical; conditions: qualitative statement
Excerpt: Die Verbindung der Formel I ist wasserunlöslich und kann nach irgendeiner der für unlösliche Verbindungen üblichen Methoden konfektioniert werden.

[4] = tested on: Epilachna chrysomelina, Gurkenkäfer; assay: Persistence test on treated pumpkin plants (7 days at 30°C with UV irradiation before infestation); assay type: in vivo; conditions: 168 h, wettable powder per Beispiel 2, 7 days 30°C + UV, then 10 first-instar larvae per plant, reduction of survival rate vs control, read-out: % Wirkung
Protocol: Testinsekt: Epilachna chrysomelina, Gurkenkäfer Testmethode: Persistenztest
(§1) Kürbispflanzen werden bis zum Abtropfen behandelt. Nach dem Antrocknen werden die Pflanzen in einem Ecophyten bei 30°C und UV-Bestrahlung während 7 Tagen inkubiert. Nach der Inkubation werden pro Pflanze 10 Larven des ersten Stadiums angesetzt. Die Resultate werden ausgedrückt als prozentuale Reduktion der Ueberlebensrate der Epilachna-Larven im Vergleich zu den Kontrollparzellen.
Die Formulierung der Wirkstoffe erfolgte gemäss Beispiel 2. ai = Wirkstoff

[5] = tested on: Leptinotarsa decemlineata, Kartoffelkäfer; assay: Persistence test on treated potato plants (7 days at 30°C with UV irradiation before infestation); assay type: in vivo; conditions: 168 h, wettable powder per Beispiel 2, 7 days 30°C + UV, then 10 first-instar larvae per plant, reduction of survival rate vs control, read-out: % Wirkung
Protocol: Testinsekt: Leptinotarsa decemlineata, Kartoffelkäfer Testmethode: Persistenztest
as §1, with “Kartoffelpflanzen” for “Kürbispflanzen”, “Leptinotarsa-Larven” for “Epilachna-Larven”
Die Formulierung der Wirkstoffe erfolgte gemäss Beispiel 2 ai = Wirkstoff

CN(SN(C)C(=O)Oc1cccc2c1OC(C)(C)O2)C(=O)Oc1cccc2c1OC(C)(C)O2 [Formel I, Bis-[2,3-(isopropylidendioxy)-phenyl]-thio-bis-N-methylcarbamat]
LD50 [1]: > 1000 mg/kg
mortality at 0.01 µg/mL ([2]; read-out: % Wirkung): 13%
mortality at 0.1 µg/mL ([2]; read-out: % Wirkung): 100%
mortality at 1 µg/mL ([2]; read-out: % Wirkung): 100%
mortality at 0.1 µg/mL ([2]; read-out: Wirkung): 100%
mortality at 1e-09 g/cm2 [3]: 0%
mortality at 1e-08 g/cm2 [3]: 79%
mortality at 1e-07 g/cm2 [3]: 100%
UV-Stabilität (UV stability): hohe UV-Stabilität
Wasserlöslichkeit (Water solubility): wasserunlöslich

CNC(=O)Oc1cccc2c1OC(C)(C)O2 [Formel II]
mortality at 0.01 % ([4]; Konz. 0,01 % ai): 30%
mortality at 0.03 % ([4]; Konz. 0,03 % ai): 100%
mortality at 1 µg/mL ([2]; Dosis 10^-6 g ai/ml Wasser, last-instar larvae, 25°C, 7 days, reduction of number of normal adults vs control, read-out: % Wirkung): 100%
mortality at 0.1 µg/mL ([2]; Dosis 10^-7 g ai/ml Wasser, last-instar larvae, 25°C, 7 days, reduction of number of normal adults vs control, read-out: % Wirkung): 2%
mortality at 0.01 µg/mL ([2]; Dosis 10^-8 g ai/ml Wasser, last-instar larvae, 25°C, 7 days, reduction of number of normal adults vs control, read-out: % Wirkung): 0%
mortality at 1e-07 g/cm2 ([3]; Dosis 10^-7 g ai/cm^2, acetone solution, first-instar larvae, 25°C, 60% rel. humidity, 4 days, reduction of survival rate vs control): 100%
mortality at 1e-08 g/cm2 ([3]; Dosis 10^-8 g ai/cm^2, acetone solution, first-instar larvae, 25°C, 60% rel. humidity, 4 days, reduction of survival rate vs control): 8%
mortality at 1e-09 g/cm2 ([3]; Dosis 10^-9 g ai/cm^2, acetone solution, first-instar larvae, 25°C, 60% rel. humidity, 4 days, reduction of survival rate vs control): 0%
mortality at 0.01 % ([5]; Konz. 0,01 % ai): 5%
mortality at 0.03 % ([5]; Konz. 0,03 % ai): 95%
